The results in this text go back to BindingDB's records for doi:10.1016/j.bmc.2019.115235 (Shandong University, 2020).

The target in experiment [1] is T1, Hypoxia-inducible factor 1-alpha (Homo sapiens, UniProt Q16665). Kind of experiment: […] of HIF1 in human T47D cells.
Experiment [2] addresses T1, Hypoxia-inducible factor 1-alpha. Kind of experiment: […] of HIF1 in human T47D cells after 30 mins by luciferase reporter gene assay.

T1 sequence (Q16665 whole entry): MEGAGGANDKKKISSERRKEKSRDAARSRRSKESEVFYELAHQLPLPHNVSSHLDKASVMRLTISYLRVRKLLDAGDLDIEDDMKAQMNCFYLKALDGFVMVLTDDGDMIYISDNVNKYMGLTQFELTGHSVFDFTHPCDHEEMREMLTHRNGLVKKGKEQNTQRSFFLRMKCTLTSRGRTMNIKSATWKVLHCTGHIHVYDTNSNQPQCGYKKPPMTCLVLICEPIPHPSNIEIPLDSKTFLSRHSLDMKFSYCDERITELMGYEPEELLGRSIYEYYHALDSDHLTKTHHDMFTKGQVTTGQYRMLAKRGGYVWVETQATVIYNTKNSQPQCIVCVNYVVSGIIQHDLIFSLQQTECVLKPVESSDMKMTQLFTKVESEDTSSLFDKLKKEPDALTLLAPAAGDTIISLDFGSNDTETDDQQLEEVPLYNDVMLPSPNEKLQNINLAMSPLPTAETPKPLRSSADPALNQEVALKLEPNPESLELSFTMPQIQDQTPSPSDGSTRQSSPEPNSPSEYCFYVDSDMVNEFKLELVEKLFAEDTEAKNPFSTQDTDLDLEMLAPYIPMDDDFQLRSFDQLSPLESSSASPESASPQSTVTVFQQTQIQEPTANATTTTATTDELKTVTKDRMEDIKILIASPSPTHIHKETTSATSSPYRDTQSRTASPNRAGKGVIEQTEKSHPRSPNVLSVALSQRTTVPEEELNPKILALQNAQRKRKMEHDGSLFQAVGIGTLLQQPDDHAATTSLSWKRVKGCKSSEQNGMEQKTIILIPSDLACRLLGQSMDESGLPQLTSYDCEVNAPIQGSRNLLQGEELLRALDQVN

For `COc1ccc([C@@H](O)[C@@H](C)Oc2ccc([C@H]3O[C@H](c4ccc(OC)c(OC)c4)[C@H](C)[C@H]3C)cc2OC)cc1OC`, the 50% inhibitory concentration (IC50) (commonly the concentration that gives 50% inhibition) in experiment [1] is 20 nM. In the case of `COc1ccc([C@@H](O)[C@@H](C)Oc2ccc([C@@H]3CC[C@H](c4ccc(O[C@H](C)[C@H](O)c5ccc(OC)c(OC)c5)c(OC)c4)C3)cc2OC)cc1OC`, in experiment [2], the IC50 came out at 3 nM.
